Results on five compounds are retold here after patent US9499509B2, “Dihydrochalcone derivatives and their use as antibiotic agents” (UNIVERSITÉ DU QUÉBEC À CHICOUTIMI, priority 2012, dated 2016).

SMILES strings stand for the structures. ≈ marks a conversion by molar mass, not a printed value. A value given as a limit tells only on which side of the number the result lay.

In one series the test system is MRSA strains. Kind of series: Antibiotic assay (absorption 660 nm, Example 2), MRSA strains. In kind it is cell-based, Staphylococcus aureus. The procedure: (§1) Antibiotic agents. Gentamicin sulfate was provided by Calbiochem. Chloramphenicol was provided by Sigma-Aldrich.
(§2) Antibiotic assay. […] The bacteria strains were inoculated in nutrients broth. […] All bacteria were plated in nutrients broth at a concentration of 450 000 bacteria/m L.
(§3) Compounds IV to XXI were diluted in dimethylsulfoxide. […] The compounds were tested at 8 different concentrations.
(§4) Each well contained: 100 μL of bacteria, 100 μL of the compounds tested. The plates were incubated at 37° C. for 6 h. The absorption was read using a Varioskan flash multimode Reader™ (Thermo Scientific) at 660 nm.
(§5) MRSA. Ten (10) strains of MRSA obtained as described above were tested along with an S. aureus wild type (WT) strain (ATCC 25923).

In series [1] the test system is S. aureus wild type strain (ATCC 25923). Kind of series: Antibiotic assay (absorption 660 nm, Example 2), S. aureus wild type. It is filed as cell-based, Staphylococcus aureus. The conditions noted are these: for MIC: S. aureus WT (ATCC 25923); for S. aureus WT ATCC 25923 (toxicity on bacteria): Table 7, same values as MIC of Table 6. The procedure: as §1, §2, §3, §4, §5

A further series relates to WS-1 cell lines. The experiment in a line: Cytotoxicity assay on WS-1 (Example 2). It is filed as cell-based. The arrangement: unit not given here. Particulars: Table 7; WS-1, 48 h. The procedure: Cytotoxicity assay. […] The WS-1 cell lines were provided by ATCC. […] The compounds tested were then added at 8 different concentrations. […] In Table 7, the therapeutic indexes of compounds IV to XXI are presented.

The MIC is the least concentration at which growth counts as inhibited. Regarding `O=C(CCc1ccccc1)c1c(O)cc(O)c2c1OC(c1ccc(O)cc1)CC2` (racemic) [IV], the minimum inhibitory concentration (MIC) against MRSA strains (MRSA 1) is 0.84 ± 0.04 µM (≈ 0.328 µg/mL); against MRSA strains (MRSA 2), 1.50 ± 0.06 µM (≈ 0.586 µg/mL); in the series with MRSA strains (MRSA 3), 1.02 ± 0.06 µM (≈ 0.398 µg/mL); against MRSA strains (MRSA 4), 2.6 ± 0.2 µM (≈ 1.02 µg/mL); against MRSA strains (MRSA 5), 0.95 ± 0.01 µM (≈ 0.371 µg/mL); against MRSA strains (MRSA 6), 2.11 ± 0.07 µM (≈ 0.824 µg/mL). For the same compound, the minimal inhibitory concentration (MIC) against MRSA strains (MRSA 7) worked out at 1.22 ± 0.04 µM (≈ 0.476 µg/mL); against MRSA strains (MRSA 8), 1.35 ± 0.05 µM (≈ 0.527 µg/mL); in the series on MRSA strains (MRSA 9), 1.32 ± 0.04 µM (≈ 0.515 µg/mL); with MRSA strains (MRSA 10), 1.23 ± 0.08 µM (≈ 0.48 µg/mL); in series [1], 1.27 ± 0.06 µM (≈ 0.496 µg/mL). The “S. aureus WT ATCC 25923 (toxicity on bacteria)” value in series [1] was found to be 1.27 ± 0.06. The “WS-1 (toxicity on normal cells, fibroblast)” value with WS-1 cell lines is reported as 16 ± 2.

Consider `COc1ccc(CCC(=O)c2c(O)cc(O)c3c2OC(c2ccc(O)cc2)CC3)cc1` (racemic) [VII], for which the MIC with MRSA strains (MRSA 1) came out at 2.9 ± 0.1 µM (≈ 1.22 µg/mL); against MRSA strains (MRSA 2), 2.5 ± 0.1 µM (≈ 1.05 µg/mL); in the series on MRSA strains (MRSA 3), 1.7 ± 0.1 µM (≈ 0.715 µg/mL); in the series with MRSA strains (MRSA 4), 2.4 ± 0.2 µM (≈ 1.01 µg/mL); in the series with MRSA strains (MRSA 5) it was 2.0 ± 0.1 µM (≈ 0.841 µg/mL); against MRSA strains (MRSA 6), 2.7 ± 0.1 µM (≈ 1.14 µg/mL). Moreover, the MIC in the series with MRSA strains (MRSA 7) was found to be 2.13 ± 0.02 µM (≈ 0.896 µg/mL); against MRSA strains (MRSA 8), 2.2 ± 0.5 µM (≈ 0.925 µg/mL); in the series with MRSA strains (MRSA 9) it was 2.5 ± 0.2 µM (≈ 1.05 µg/mL); with MRSA strains (MRSA 10), 1.2 ± 0.2 µM (≈ 0.505 µg/mL); in series [1] it was 2.2 ± 0.2 µM (≈ 0.925 µg/mL). For the same compound, the “S. aureus WT ATCC 25923 (toxicity on bacteria)” value in series [1] was found to be 2.2 ± 0.2. For the same compound, in the series with WS-1 cell lines, the “WS-1 (toxicity on normal cells, fibroblast)” value is 26.

Turning to `O=C(CCc1ccccc1)c1c(O)cc2c(c1O)CC(O)C(c1ccc(O)cc1)O2` (racemic) [XIII], the minimum inhibitory concentration (MIC) with MRSA strains (MRSA 1) turned out to be 2.9 ± 0.2 µM (≈ 1.18 µg/mL); in the series on MRSA strains (MRSA 2) it was 2.7 ± 0.1 µM (≈ 1.1 µg/mL); against MRSA strains (MRSA 3), 7.8 ± 0.5 µM (≈ 3.17 µg/mL); in the series with MRSA strains (MRSA 4), 6.8 ± 0.7 µM (≈ 2.76 µg/mL); in the series with MRSA strains (MRSA 5), 2.7 ± 0.3 µM (≈ 1.1 µg/mL); against MRSA strains (MRSA 6), 5.4 ± 0.4 µM (≈ 2.19 µg/mL). Besides, the MIC in the series on MRSA strains (MRSA 7) is 2.0 ± 0.2 µM (≈ 0.813 µg/mL); against MRSA strains (MRSA 8) it was 3.4 ± 0.3 µM (≈ 1.38 µg/mL); in the series with MRSA strains (MRSA 9), 2.9 ± 0.1 µM (≈ 1.18 µg/mL); in the series on MRSA strains (MRSA 10) it was 4.2 ± 0.8 µM (≈ 1.71 µg/mL); in series [1], 3.2 ± 0.2 µM (≈ 1.3 µg/mL). In series [1], the “S. aureus WT ATCC 25923 (toxicity on bacteria)” value was 3.2 ± 0.2. In addition, in the series with WS-1 cell lines, the “WS-1 (toxicity on normal cells, fibroblast)” value came out at 10.1 ± 0.8.

On to `COc1ccc(CCC(=O)c2c(O)cc(O)c3c2OC(c2ccc(O)cc2)C(O)C3)cc1` (racemic) [XIX], for which the MIC was found to be 2.6 ± 0.1 µM (≈ 1.13 µg/mL) in the series with MRSA strains (MRSA 1); 2.4 ± 0.1 µM (≈ 1.05 µg/mL) with MRSA strains (MRSA 2); 4.3 ± 0.4 µM (≈ 1.88 µg/mL) against MRSA strains (MRSA 3); 2.9 ± 0.6 µM (≈ 1.27 µg/mL) against MRSA strains (MRSA 4); 3.1 ± 0.6 µM (≈ 1.35 µg/mL) against MRSA strains (MRSA 5); 2.8 ± 0.2 µM (≈ 1.22 µg/mL) against MRSA strains (MRSA 6). Also, the minimal inhibitory concentration (MIC) stood at 2.6 ± 0.1 µM (≈ 1.13 µg/mL) against MRSA strains (MRSA 7); 2.7 ± 0.2 µM (≈ 1.18 µg/mL) against MRSA strains (MRSA 8); 3.0 ± 0.3 µM (≈ 1.31 µg/mL) in the series on MRSA strains (MRSA 9); 2.56 ± 0.04 µM (≈ 1.12 µg/mL) with MRSA strains (MRSA 10); 2.5 ± 0.1 µM (≈ 1.09 µg/mL) in series [1]. In series [1], the “S. aureus WT ATCC 25923 (toxicity on bacteria)” value is 2.5 ± 0.1. In addition, the “WS-1 (toxicity on normal cells, fibroblast)” value in the series on WS-1 cell lines is on record as 8.2 ± 1.0.

On to `O=C(CCc1ccccc1)c1c(O)cc(O)c2c1OC(c1ccc(O)cc1)C(O)C2` (racemic) [XVI], for which the MIC in the series with MRSA strains (MRSA 1) is 5.6 ± 0.5 µM (≈ 2.28 µg/mL); against MRSA strains (MRSA 2), 4.7 ± 0.4 µM (≈ 1.91 µg/mL); against MRSA strains (MRSA 3), 5.1 ± 0.3 µM (≈ 2.07 µg/mL); against MRSA strains (MRSA 4), 5.7 ± 0.4 µM (≈ 2.32 µg/mL); against MRSA strains (MRSA 5), 4.1 ± 0.6 µM (≈ 1.67 µg/mL); against MRSA strains (MRSA 6), 5.4 ± 0.7 µM (≈ 2.19 µg/mL). Moreover, the minimum inhibitory concentration (MIC) in the series with MRSA strains (MRSA 7) came out at 3.5 ± 0.3 µM (≈ 1.42 µg/mL); against MRSA strains (MRSA 8), 5.3 ± 0.6 µM (≈ 2.15 µg/mL); against MRSA strains (MRSA 9), 4.8 ± 0.2 µM (≈ 1.95 µg/mL); against MRSA strains (MRSA 10), 3.3 ± 0.1 µM (≈ 1.34 µg/mL); in series [1] it was 5.9 ± 0.3 µM (≈ 2.4 µg/mL). Besides, in series [1], the “S. aureus WT ATCC 25923 (toxicity on bacteria)” value stood at 5.9 ± 0.3. In addition, the “WS-1 (toxicity on normal cells, fibroblast)” value with WS-1 cell lines was >50.
